Reference: publication PMC10600247, “Impact of C- and N-terminal protection on the stability, metal chelation and antimicrobial properties of calcitermin” (Scientific Reports, 2023)
Residues, ends and D or L forms follow the SMILES beside them.

How the values were obtained:
E. coli (ATCC 25922) = assay: In vitro anti-E. coli CFU assay; format: cell-based, Escherichia coli; conditions: pH 5.4; for mean CFU number ± S.D.: per 0.1 mL
Description: (§1) All microbes were grown at 37 °C in Tryptic Soy Broth (TSB; Biolife, Milan, Italy) or Tryptic Soy Agar plates (TSA, Biolife, Milan, Italy). Peptides were tested at a final concentration C = 0.128, 0.064, 0.032 mg/mL, in the presence or absence of ZnCl2 or CuCl2, at a M:L molar ratio 0.9:1. Briefly, all the microbes were expanded in TSB at 37 °C under agitation for 12 h and then sub-cultured by 1:10 dilution in TSB under the same conditions until reaching OD600nm = 0.3–0.4, as measured by spectrophotometric reading using a GENESYS 10S UV–Vis spectrophotometer (Thermo Scientific, Milan, Italy), corresponding to 0.9–1.2 × 10^7 colony forming units (CFU) per mL, 1.5–2 × 10^8 CFU/mL and 2.4–3.2 × 10^8 CFU/mL, for C. albicans, S. aureus and E. coli respectively. The cultures were then centrifuged at 4500 rpm for 10 min in a SL 8 centrifuge (TX-150 Rotor) (Thermo Scientific, Milan, Italy), and the cellular pellets were washed with PBS pH 5.4. Pelletized cultures were then suspended in 10 mL of PBS pH 5.4, then the suspensions were diluted to a final concentration of 10^4 CFU/mL. Aliquots of 100 µl (corresponding to 10^3 CFU) were seeded in each well of a 96-wells plate. 3 µl of TSB at pH 5.4 were added to each well to obtain a final 1.5% TSB concentration in the culture medium. Peptides were serially diluted in PBS pH 5.4 to C = 0.257, 0.128, and 0.064 mg/mL. ZnCl2 and CuCl2 solutions were added where requested to obtain a M:L ratio 0.9:1. 100 µl of the prepared peptides ± ZnCl2/CuCl2 solutions were then added to each well, obtaining the final 0.128, 0.064 and 0.032 mg/mL peptide concentrations in a total 0.2 mL volume. PBS alone and PBS + ZnCl2/CuCl2 solutions were included as controls. The plates were incubated at 37 °C on a platform rocker with slow stirring for 3 and 24 h. At the end of the incubation times, 100 µl aliquots were taken from each sample and diluted in PBS pH 5.4 to be seeded on TSA plates. Specifically, aliquots were diluted 1:10 at 3 h, and 1:200, 1:100,000 and 1:10 at 24 h, for C. albicans, E. coli, and S. aureus respectively. After incubation for 24 h at 37 °C, grown CFUs were enumerated. Samples were assayed in triplicate in two independent experiments. Student’s t-test was used for the evaluation of significance in biological tests; a p value ≤ 0.05 was considered significant.

C. albicans (ATCC 10231) = assay: In vitro antifungal CFU assay; format: cell-based, Candida albicans; conditions: pH 5.4; for mean CFU number ± S.D.: per 0.1 mL
Description: as §1

in vitro = conditions: human, pH 7.4
Description: Each peptide (C = 1·10^–4 M) and metal complex (metal:ligand ratio 1:1) was incubated in a sample containing 1 ml of human plasma (obtained as a pool of 40 individuals from the University Hospital of Ferrara) and 1 ml of ammonium acetate buffer (pH 7.4) at 37 °C. L-phenylalaninol is added as internal standard. At regular time intervals, 200 μl aliquots were taken and enzymatic reaction was blocked by adding 300 μl of HClO4 0.5 M. The sample was then centrifugated for 6 min at 14,000 × g. The supernatant was then filtered and analysed by HPLC. The analytical column was an Agilent Poroshell 120 SB-C18 (4.6 × 100 mm, 2.7 μm, pore size 120 Å). Flow rate = 0.5 ml/min, mobile phase H2O + 0.1% v/v TFA, linear gradient from 0 to 60% of acetonitrile + 0.1% v/v TFA over 30 min for the elution of peptides, temperature 25 °C, detection wavelength 210 nm. […] Informed consent was obtained from all subjects and/or their legal guardian(s) prior to the donation of blood samples. All experimental protocols were approved by the National Research and Research Transversal Processes boards at University of Ferrara. All methods were carried out in accordance with relevant guidelines and regulations.

[1] = peptide 0.032 mg/mL + CuCl2 (0.9:1), 3 h
[2] = peptide 0.032 mg/mL + CuCl2 (0.9:1), 24 h
[3] = peptide 0.032 mg/mL + ZnCl2 (0.9:1), 3 h
[4] = peptide 0.032 mg/mL + ZnCl2 (0.9:1), 24 h
[5] = peptide 0.064 mg/mL + CuCl2 (0.9:1), 3 h
[6] = peptide 0.064 mg/mL + CuCl2 (0.9:1), 24 h
[7] = peptide 0.064 mg/mL + ZnCl2 (0.9:1), 3 h
[8] = peptide 0.064 mg/mL + ZnCl2 (0.9:1), 24 h
[9] = peptide 0.128 mg/mL + CuCl2 (0.9:1), 3 h
[10] = peptide 0.128 mg/mL + CuCl2 (0.9:1), 24 h
[11] = peptide 0.128 mg/mL + ZnCl2 (0.9:1), 3 h
[12] = peptide 0.128 mg/mL + ZnCl2 (0.9:1), 24 h
[13] = peptide alone 0.032 mg/mL, 24 h
[14] = peptide alone 0.064 mg/mL, 24 h
[15] = peptide alone 0.128 mg/mL, 24 h

## CC[C@H](C)[C@H](NC(=O)[C@H](C)NC(=O)[C@@H](N)C(C)C)C(=O)N[C@@H](C)C(=O)N[C@@H](CC(C)C)C(=O)N[C@@H](CCCCN)C(=O)N[C@@H](C)C(=O)N[C@@H](C)C(=O)N[C@@H](Cc1c[nH]cn1)C(=O)N[C@@H](Cc1ccc(O)cc1)C(=O)N[C@@H](Cc1c[nH]cn1)C(=O)N[C@H](C(=O)N[C@@H](Cc1c[nH]cn1)C(=O)N[C@@H](CCCCN)C(=O)N[C@@H](CCC(=O)O)C(N)=O)[C@@H](C)O [L3, VAIALKAAHYHTHKE-NH2] (H-VAIALKAAHYHTHKE-NH2)
E. coli (ATCC 25922); [1]
  mean CFU number ± S.D.: 509 ± 100 CFU
E. coli (ATCC 25922); [2]
  CFU decrease/increase with respect to untreated controls: +7%
  mean CFU number ± S.D.: 184 ± 17 CFU
E. coli (ATCC 25922); [3]
  mean CFU number ± S.D.: 439 ± 91 CFU
E. coli (ATCC 25922); [4]
  CFU decrease/increase with respect to untreated controls: +17%
  mean CFU number ± S.D.: 202 ± 23 CFU
E. coli (ATCC 25922); [5]
  mean CFU number ± S.D.: 198 ± 117 CFU
E. coli (ATCC 25922); [6]
  CFU decrease/increase with respect to untreated controls: -20%
  mean CFU number ± S.D.: 138 ± 48 CFU
E. coli (ATCC 25922); [7]
  mean CFU number ± S.D.: 224 ± 4 CFU
E. coli (ATCC 25922); [8]
  CFU decrease/increase with respect to untreated controls: +8%
  mean CFU number ± S.D.: 186 ± 21 CFU
E. coli (ATCC 25922); [9]
  mean CFU number ± S.D.: 191 ± 7 CFU
E. coli (ATCC 25922); [10]
  mean CFU number ± S.D.: 102 ± 20 CFU
E. coli (ATCC 25922); [11]
  mean CFU number ± S.D.: 59 ± 9 CFU
E. coli (ATCC 25922); [12]
  CFU decrease/increase with respect to untreated controls: +9%
  mean CFU number ± S.D.: 187 ± 17 CFU
E. coli (ATCC 25922); peptide alone 0.032 mg/mL, 3 h
  CFU decrease/increase with respect to untreated controls: -23%
  mean CFU number ± S.D.: 810 ± 100 CFU
E. coli (ATCC 25922); [13]
  CFU decrease/increase with respect to untreated controls: +17%
  mean CFU number ± S.D.: 202 ± 18 CFU
E. coli (ATCC 25922); peptide alone 0.064 mg/mL, 3 h
  CFU decrease/increase with respect to untreated controls: -30%
  mean CFU number ± S.D.: 737 ± 147 CFU
E. coli (ATCC 25922); [14]
  CFU decrease/increase with respect to untreated controls: -3%
  mean CFU number ± S.D.: 166 ± 8 CFU
E. coli (ATCC 25922); peptide alone 0.128 mg/mL, 3 h
  CFU decrease/increase with respect to untreated controls: -15%
  mean CFU number ± S.D.: 893 ± 113 CFU
E. coli (ATCC 25922); [15]
  CFU decrease/increase with respect to untreated controls: +12%
  mean CFU number ± S.D.: 193 ± 9 CFU
C. albicans (ATCC 10231); [1]
  CFU decrease/increase with respect to untreated controls: +23%
  mean CFU number ± S.D.: 187 ± 20 CFU
C. albicans (ATCC 10231); [2]
  CFU decrease/increase with respect to untreated controls: -19%
  mean CFU number ± S.D.: 2,042 ± 137 CFU
C. albicans (ATCC 10231); [3]
  CFU decrease/increase with respect to untreated controls: +6%
  mean CFU number ± S.D.: 160 ± 25 CFU
C. albicans (ATCC 10231); [4]
  CFU decrease/increase with respect to untreated controls: +2%
  mean CFU number ± S.D.: 2,557 ± 251 CFU
C. albicans (ATCC 10231); [5]
  CFU decrease/increase with respect to untreated controls: +59%
  mean CFU number ± S.D.: 241 ± 23 CFU
C. albicans (ATCC 10231); [6]
  CFU decrease/increase with respect to untreated controls: -8%
  mean CFU number ± S.D.: 2,315 ± 546 CFU
C. albicans (ATCC 10231); [7]
  CFU decrease/increase with respect to untreated controls: -2%
  mean CFU number ± S.D.: 148 ± 22 CFU
C. albicans (ATCC 10231); [8]
  mean CFU number ± S.D.: 1,596 ± 145 CFU
C. albicans (ATCC 10231); [9]
  CFU decrease/increase with respect to untreated controls: +53%
  mean CFU number ± S.D.: 230 ± 3 CFU
C. albicans (ATCC 10231); [10]
  CFU decrease/increase with respect to untreated controls: -33%
  mean CFU number ± S.D.: 1,687 ± 111 CFU
C. albicans (ATCC 10231); [11]
  mean CFU number ± S.D.: 71 ± 17 CFU
C. albicans (ATCC 10231); [12]
  mean CFU number ± S.D.: 605 ± 97 CFU
C. albicans (ATCC 10231); peptide alone 0.032 mg/mL, 3 h
  CFU decrease/increase with respect to untreated controls: +25%
  mean CFU number ± S.D.: 189 ± 23 CFU
C. albicans (ATCC 10231); [13]
  CFU decrease/increase with respect to untreated controls: -10%
  mean CFU number ± S.D.: 2,263 ± 251 CFU
C. albicans (ATCC 10231); peptide alone 0.064 mg/mL, 3 h
  CFU decrease/increase with respect to untreated controls: +20%
  mean CFU number ± S.D.: 182 ± 27 CFU
C. albicans (ATCC 10231); [14]
  CFU decrease/increase with respect to untreated controls: -12%
  mean CFU number ± S.D.: 2,204 ± 170 CFU
C. albicans (ATCC 10231); peptide alone 0.128 mg/mL, 3 h
  CFU decrease/increase with respect to untreated controls: -5%
  mean CFU number ± S.D.: 144 ± 11 CFU
C. albicans (ATCC 10231); [15]
  CFU decrease/increase with respect to untreated controls: -14%
  mean CFU number ± S.D.: 2,164 ± 101 CFU
In vitro
  half-life: ~20 min
